# pIC50: −log10 of the molar value.
# What was measured:
# Type in all cases: cell-based
# [1] = target: T1, N-formyl peptide receptor 2 (Homo sapiens) (UniProt P25090); assay: Agonist activity at ALX/FPR2 in human THP1 cells harboring NF-kB-Luc assessed as inhibition of LPS-induced NFkB signalling activation by measuring IL-1beta secretion at 10^-7 M pretreated for 30 mins followed by LPS stimulation for 24 hrs by electrochemiluminescence assay; design: scale not given: the % may be the effect or the level left
# T1 sequence (whole entry): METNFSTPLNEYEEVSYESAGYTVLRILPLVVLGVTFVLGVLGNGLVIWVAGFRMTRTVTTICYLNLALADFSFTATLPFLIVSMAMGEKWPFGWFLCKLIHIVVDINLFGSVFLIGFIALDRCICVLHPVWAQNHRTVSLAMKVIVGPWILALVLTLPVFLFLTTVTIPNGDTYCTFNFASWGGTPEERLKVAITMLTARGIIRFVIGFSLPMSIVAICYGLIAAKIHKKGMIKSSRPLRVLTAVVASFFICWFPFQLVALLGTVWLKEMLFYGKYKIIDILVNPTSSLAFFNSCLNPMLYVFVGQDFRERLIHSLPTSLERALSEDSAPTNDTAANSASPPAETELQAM
# [2] = target: T2, N-formyl peptide receptor 2 (Homo sapiens, UniProt P25090); assay: Agonist activity at ALX/FPR2 in human THP1 cells harboring NF-kB-Luc assessed as inhibition of LPS-induced NFkB signalling activation by measuring reduction in IFNgamma secretion pretreated for 30 mins followed by LPS stimulation for 24 hrs by electrochemiluminescence assay; settings: read-out: IC50
# T2 sequence (P25090 whole entry): T1 sequence (whole entry)
# [3] = target: T1, N-formyl peptide receptor 2 (Homo sapiens); assay: Agonist activity at ALX/FPR2 in human THP1 cells harboring NF-kB-Luc assessed as inhibition of LPS-induced NFkB signalling activation by measuring TNFalpha secretion at 10^-9 M pretreated for 30 mins followed by LPS stimulation for 24 hrs by electrochemiluminescence assay; design: scale not given: the % may be the effect or the level left
# [4] = target: T1, N-formyl peptide receptor 2 (Homo sapiens); assay: Agonist activity at ALX/FPR2 in human THP1 cells harboring NF-kB-Luc assessed as inhibition of LPS-induced NFkB signalling activation by measuring NF-kB activation level at 10^-9 M pretreated for 30 mins followed by LPS stimulation for 24 hrs by luciferase reporter gene assay; design: scale not given: the % may be the effect or the level left
# [5] = target: T1, N-formyl peptide receptor 2 (Homo sapiens); assay: Agonist activity at ALX/FPR2 in human THP1 cells harboring NF-kB-Luc assessed as inhibition of LPS-induced NFkB signalling activation by measuring IL-12p70 secretion at 10^-11 M pretreated for 30 mins followed by LPS stimulation for 24 hrs by electrochemiluminescence assay; design: scale not given: the % may be the effect or the level left
# [6] = target: T1, N-formyl peptide receptor 2 (Homo sapiens); assay: Agonist activity at ALX/FPR2 in human THP1 cells harboring NF-kB-Luc assessed as inhibition of LPS-induced NFkB signalling activation by measuring IFNgamma secretion at 10^-11 M pretreated for 30 mins followed by LPS stimulation for 24 hrs by electrochemiluminescence assay; design: scale not given: the % may be the effect or the level left
# [7] = target: T1, N-formyl peptide receptor 2 (Homo sapiens); assay: Agonist activity at ALX/FPR2 in human THP1 cells harboring NF-kB-Luc assessed as inhibition of LPS-induced NFkB signalling activation by measuring IL-6 secretion at 10^-9 M pretreated for 30 mins followed by LPS stimulation for 24 hrs by electrochemiluminescence assay; design: scale not given: the % may be the effect or the level left
# [8] = target: T1, N-formyl peptide receptor 2 (Homo sapiens); assay: Agonist activity at ALX/FPR2 in human THP1 cells harboring NF-kB-Luc assessed as inhibition of LPS-induced NFkB signalling activation by measuring TNFalpha secretion at 10^-11 M pretreated for 30 mins followed by LPS stimulation for 24 hrs by electrochemiluminescence assay; design: scale not given: the % may be the effect or the level left
# [9] = target: T1, N-formyl peptide receptor 2 (Homo sapiens); assay: Agonist activity at ALX/FPR2 in human THP1 cells harboring NF-kB-Luc assessed as inhibition of LPS-induced NFkB signalling activation by measuring NF-kB activation level at 10^-7 M pretreated for 30 mins followed by LPS stimulation for 24 hrs by luciferase reporter gene assay; design: scale not given: the % may be the effect or the level left
# [10] = target: T1, N-formyl peptide receptor 2 (Homo sapiens); assay: Agonist activity at ALX/FPR2 in human THP1 cells harboring NF-kB-Luc assessed as inhibition of LPS-induced NFkB signalling activation by measuring IL-1beta secretion at 10^-9 M pretreated for 30 mins followed by LPS stimulation for 24 hrs by electrochemiluminescence assay; design: scale not given: the % may be the effect or the level left
# [11] = target: T1, N-formyl peptide receptor 2 (Homo sapiens); assay: Agonist activity at ALX/FPR2 in human THP1 cells harboring NF-kB-Luc assessed as inhibition of LPS-induced NFkB signalling activation by measuring IL-1beta secretion at 10^-11 M pretreated for 30 mins followed by LPS stimulation for 24 hrs by electrochemiluminescence assay; design: scale not given: the % may be the effect or the level left
# [12] = target: T2, N-formyl peptide receptor 2; assay: Agonist activity at ALX/FPR2 in human THP1 cells harboring NF-kB-Luc assessed as inhibition of LPS-induced NFkB signalling activation by measuring reduction in IL-12p70 secretion pretreated for 30 mins followed by LPS stimulation for 24 hrs by electrochemiluminescence assay; settings: read-out: IC50
# [13] = target: T1, N-formyl peptide receptor 2 (Homo sapiens); assay: Agonist activity at ALX/FPR2 in human THP1 cells harboring NF-kB-Luc assessed as inhibition of LPS-induced NFkB signalling activation by measuring NF-kB activation level at 10^-8 M pretreated for 30 mins followed by LPS stimulation for 24 hrs by luciferase reporter gene assay; design: scale not given: the % may be the effect or the level left
# [14] = target: T2, N-formyl peptide receptor 2; assay: Agonist activity at ALX/FPR2 in human THP1 cells harboring NF-kB-Luc assessed as inhibition of LPS-induced NFkB signalling activation by measuring reduction in IL-1beta secretion pretreated for 30 mins followed by LPS stimulation for 24 hrs by electrochemiluminescence assay; settings: read-out: IC50
# [15] = target: T2, N-formyl peptide receptor 2; assay: Agonist activity at ALX/FPR2 in human THP1 cells harboring NF-kB-Luc assessed as inhibition of LPS-induced NFkB signalling activation pretreated for 30 mins followed by LPS stimulation for 24 hrs by luciferase reporter gene assay
# [16] = target: T1, N-formyl peptide receptor 2 (Homo sapiens); assay: Agonist activity at ALX/FPR2 in human THP1 cells harboring NF-kB-Luc assessed as inhibition of LPS-induced NFkB signalling activation by measuring IFNgamma secretion at 10^-9 M pretreated for 30 mins followed by LPS stimulation for 24 hrs by electrochemiluminescence assay; design: scale not given: the % may be the effect or the level left
# [17] = target: T1, N-formyl peptide receptor 2 (Homo sapiens); assay: Agonist activity at ALX/FPR2 in human THP1 cells harboring NF-kB-Luc assessed as inhibition of LPS-induced NFkB signalling activation by measuring IFNgamma secretion at 10^-7 M pretreated for 30 mins followed by LPS stimulation for 24 hrs by electrochemiluminescence assay; design: scale not given: the % may be the effect or the level left
# [18] = target: T1, N-formyl peptide receptor 2 (Homo sapiens); assay: Agonist activity at ALX/FPR2 in human THP1 cells harboring NF-kB-Luc assessed as inhibition of LPS-induced NFkB signalling activation by measuring NF-kB activation level at 10^-10 M pretreated for 30 mins followed by LPS stimulation for 24 hrs by luciferase reporter gene assay; design: scale not given: the % may be the effect or the level left
# [19] = target: T1, N-formyl peptide receptor 2 (Homo sapiens); assay: Agonist activity at ALX/FPR2 in human THP1 cells harboring NF-kB-Luc assessed as inhibition of LPS-induced NFkB signalling activation by measuring IL-12p70 secretion at 10^-9 M pretreated for 30 mins followed by LPS stimulation for 24 hrs by electrochemiluminescence assay; design: scale not given: the % may be the effect or the level left
# [20] = target: T1, N-formyl peptide receptor 2 (Homo sapiens); assay: Agonist activity at ALX/FPR2 in human THP1 cells harboring NF-kB-Luc assessed as inhibition of LPS-induced NFkB signalling activation by measuring NF-kB activation level at 10^-12 M pretreated for 30 mins followed by LPS stimulation for 24 hrs by luciferase reporter gene assay; design: scale not given: the % may be the effect or the level left
# [21] = Cytotoxicity against mouse J774.1 cells assessed as cell viability by MTS assay relative to control; settings: read-out: Activity
Compound,Activity [1] [%],pIC50 [2],Activity [3] [%],Activity [4] [%],Activity [5] [%],Activity [6] [%],Activity [7] [%],Activity [8] [%],Activity [9] [%],Activity [10] [%],Activity [11] [%],pIC50 [12],Activity [13] [%],pIC50 [14],pIC50 [15],Activity [16] [%],Activity [17] [%],Activity [18] [%],Activity [19] [%],Activity [20] [%],further results
CCCCC[C@@H](O)c1nc(-c2ccccc2)n(-c2ccccc2)c1/C=C/[C@@H](O)[C@@H](O)CCCC(=O)OC,57.7,7.73,68.6,85.2,67.7,79.1,64.4,61.5,88.2,50.3,49.6,8.00,84.4,8.85,7.58,71.4,95,91.2,68.3,99.5,viability [21]: 95 to 100%
CCCCC[C@H](O)/C=C/C=C\C=C\C=C\[C@@H](O)[C@@H](O)CCCC(=O)O [LIPOXIN A4],5.7,7.65,16.9,84.2,25.7,30.3,1.1,19.6,76,4.3,6.6,7.93,83.3,8.74,7.58,36.1,32,85.6,37.1,95.3,viability [21]: 95 to 100%
CCCCC[C@H](O)c1nc(-c2ccccc2)n(-c2ccccc2)c1/C=C/[C@@H](O)[C@@H](O)CCCC(=O)OC,67.4,9.15,80.9,80.3,65.1,69.1,77.3,69.3,82.2,57.8,50.3,9.00,80.4,9.00,7.49,68.4,129,79.7,61.4,88.2,viability [21]: 95 to 100%
